Values after ≈ are worked out from the molar mass of the structure shown.
Tests used:
Mycobacterium leprae = experiment: Anti-leprotic activity against Mycobacterium leprae assessed as maximum bactericidal dilutions; assay type: functional
Escherichia coli [1] = experiment: Antimicrobial activity against Escherichia coli ATCC 35218 by broth microdilution assay; assay type: functional
Klebsiella pneumoniae = experiment: Antimicrobial activity against Klebsiella pneumoniae 700603 by broth microdilution assay; assay type: functional
[2] = tested on: Mycobacterium tuberculosis; experiment: Antitubercular activity against Mycobacterium tuberculosis H37Rv ATCC 27294 incubated for 7 days by microplate alamar blue assay; assay type: functional; conditions: H37Rv ATCC 27294, 168 h
Staphylococcus aureus = experiment: Antimicrobial activity against Staphylococcus aureus ATCC 25923 by broth microdilution assay; assay type: functional
Enterococcus faecalis [3] = experiment: Antimicrobial activity against Enterococcus faecalis ATCC 51922 by broth microdilution assay; assay type: functional
Pseudomonas aeruginosa = experiment: Antimicrobial activity against Pseudomonas aeruginosa ATCC 27853 by broth microdilution assay; assay type: functional
Enterococcus faecalis [4] = experiment: Antimicrobial activity against Enterococcus faecalis ATCC 29212 by broth microdilution assay; assay type: functional
Escherichia coli [5] = experiment: Antimicrobial activity against Escherichia coli ATCC 25922 by broth microdilution assay; assay type: functional
Listeria monocytogenes = experiment: Antimicrobial activity against Listeria monocytogenes ATCC 1911 by broth microdilution assay; assay type: functional
[6] = tested on: Mycolicibacterium smegmatis; experiment: Inhibition of Mycobacterium smegmatis ATCC 607 dihydrofolic reductase assessed as ratio of Km to Ki
[7] = tested on: Mycolicibacterium smegmatis; experiment: Antimicrobial activity against Mycobacterium smegmatis ATCC 607; assay type: functional; conditions: Mycolicibacterium smegmatis, ATCC 607; read-out: MIC
[8] = Inhibition of Mycobacterium smegmatis ATCC 607 dihydrofolic reductase; design: species or system Mycolicibacterium smegmatis
[9] = tested on: Mycobacterium tuberculosis; experiment: Antitubercular activity against Mycobacterium tuberculosis H37Rv ATCC 27294 assessed as growth inhibition at 6.25 ug/ml by microplate alamar blue assay relative to control; assay type: functional
[10] = tested on: Mycobacterium tuberculosis; experiment: Antitubercular activity against Mycobacterium tuberculosis H37Rv ATCC 27294 assessed as inhibition of [3H]-thymidine incorporation relative to control; assay type: functional

Question: With `CCCCCCCCC(CCC1CCCCC1)C(=O)O` (centres undefined) as the compound, how does the “fold change (FC)” value (Mycobacterium leprae) read?
Answer: Its value is 220.

Question: Which MIC (Escherichia coli [1]) does the source give for `FC(F)(F)c1ccc(/C=N/NC(=S)Nc2ccc(C(F)(F)F)cc2)cc1` here?
Answer: The MIC was 400 µg/mL (≈ 1020 µM).

Question: And the MIC (Klebsiella pneumoniae)?
Answer: The MIC was 400 µg/mL (≈ 1020 µM).

Question: And the MIC [2]?
Answer: The MIC was 200 µg/mL (≈ 511 µM).

Question: And the MIC (Staphylococcus aureus)?
Answer: Its MIC is 400 µg/mL (≈ 1020 µM).

Question: What about the MIC (Enterococcus faecalis [3]) of the same compound?
Answer: The MIC was 400 µg/mL (≈ 1020 µM).

Question: And the MIC (Pseudomonas aeruginosa)?
Answer: The MIC was 400 µg/mL (≈ 1020 µM).

Question: And the MIC (Enterococcus faecalis [4])?
Answer: The MIC was 100 µg/mL (≈ 256 µM).

Question: And the MIC (Escherichia coli [5])?
Answer: The MIC was 400 µg/mL (≈ 1020 µM).

Question: And the MIC (Listeria monocytogenes)?
Answer: Its MIC is 800 µg/mL (≈ 2040 µM).

Question: For `CCCCCc1cnc2nc(N)nc(N)c2n1`, which Ratio [6] is on record?
Answer: The Ratio was 3420.

Question: What about the MIC [7] of the same compound?
Answer: Its MIC is 862 µM (≈ 200 µg/mL).

Question: And the Ki [8]?
Answer: The Ki was 1.2 nM.

Question: For `Nc1nc(N)c2nc(Cc3ccccc3)cnc2n1`, which Ratio [6] is on record?
Answer: Its Ratio is 4560.

Question: What about the MIC [7] of the same compound?
Answer: The MIC was over 794 µM.

Question: What about the Ki [8] of the same compound?
Answer: The Ki was 0.9 nM.

Question: For `CCCCCCCC(CCC1CCCC1)C(=O)O` (centres undefined), which “fold change (FC)” value (Mycobacterium leprae) is on record?
Answer: The value was 170.

Question: Which results are given for `Nc1nc(N)c2nc(CNc3ccc(C(=O)N[C@@H](CCC(=O)O)C(=O)O)cc3)cnc2n1` [AMINOPTERIN]?
Answer: Ratio [6]: 23100; MIC [7]: 742 µM (≈ 327 µg/mL); Ki [8]: 0.18 nM

Question: With `CCCCCCCCC(CCC1CCCC1)C(=O)O` (centres undefined) as the compound, how does the “fold change (FC)” value (Mycobacterium leprae) read?
Answer: The value was 180.

Question: For `O=C(N[C@H](CO)[C@H](O)c1ccc([N+](=O)[O-])cc1)C(Cl)Cl` [CHLORAMPHENICOL], which MIC (Escherichia coli [1]) is on record?
Answer: The MIC was 100 µg/mL (≈ 309 µM).

Question: What about the MIC (Klebsiella pneumoniae) of the same compound?
Answer: Its MIC is 200 µg/mL (≈ 619 µM).

Question: What about the MIC (Staphylococcus aureus) of the same compound?
Answer: Its MIC is 100 µg/mL (≈ 309 µM).

Question: And the MIC (Enterococcus faecalis [3])?
Answer: Its MIC is 200 µg/mL (≈ 619 µM).

Question: And the MIC (Pseudomonas aeruginosa)?
Answer: The MIC was 200 µg/mL (≈ 619 µM).

Question: And the MIC (Enterococcus faecalis [4])?
Answer: Its MIC is 200 µg/mL (≈ 619 µM).

Question: What about the MIC (Escherichia coli [5]) of the same compound?
Answer: Its MIC is 25 µg/mL (≈ 77.4 µM).

Question: What about the MIC (Listeria monocytogenes) of the same compound?
Answer: The MIC was 100 µg/mL (≈ 309 µM).

Question: Which results are given for `FC(F)(F)c1ccc(NC(=S)N/N=C/c2ccc(Br)cc2)cc1`?
Answer: MIC (Escherichia coli [1]): 800 µg/mL (≈ 1990 µM); MIC (Klebsiella pneumoniae): 400 µg/mL (≈ 994 µM); MIC [2]: 400 µg/mL (≈ 994 µM); MIC (Staphylococcus aureus): 400 µg/mL (≈ 994 µM); MIC (Enterococcus faecalis [3]): 400 µg/mL (≈ 994 µM); MIC (Pseudomonas aeruginosa): 400 µg/mL (≈ 994 µM); MIC (Enterococcus faecalis [4]): 400 µg/mL (≈ 994 µM); MIC (Escherichia coli [5]): 400 µg/mL (≈ 994 µM); MIC (Listeria monocytogenes): 400 µg/mL (≈ 994 µM)

Question: With `CCCCCCC(CCC1CCCC1)C(=O)O` (centres undefined) as the compound, how does the “fold change (FC)” value (Mycobacterium leprae) read?
Answer: The value was 320.

Question: With `CCCCCCCCCCCC(C(=O)O)C1CCCC1` (centres undefined) as the compound, how does the “fold change (FC)” value (Mycobacterium leprae) read?
Answer: Its value is 153.

Question: With `Cc1ccc(/C=N/NC(=S)Nc2ccc(C(F)(F)F)cc2)cc1` as the compound, how does the MIC (Escherichia coli [1]) read?
Answer: The MIC was 800 µg/mL (≈ 2370 µM).

Question: What about the MIC (Klebsiella pneumoniae) of the same compound?
Answer: Its MIC is 400 µg/mL (≈ 1190 µM).

Question: What about the MIC [2] of the same compound?
Answer: Its MIC is 200 µg/mL (≈ 593 µM).

Question: What about the MIC (Staphylococcus aureus) of the same compound?
Answer: The MIC was 400 µg/mL (≈ 1190 µM).

Question: What about the MIC (Enterococcus faecalis [3]) of the same compound?
Answer: Its MIC is 400 µg/mL (≈ 1190 µM).

Question: And the MIC (Pseudomonas aeruginosa)?
Answer: Its MIC is 400 µg/mL (≈ 1190 µM).

Question: And the MIC (Enterococcus faecalis [4])?
Answer: Its MIC is 400 µg/mL (≈ 1190 µM).

Question: What about the MIC (Escherichia coli [5]) of the same compound?
Answer: Its MIC is 400 µg/mL (≈ 1190 µM).

Question: What about the MIC (Listeria monocytogenes) of the same compound?
Answer: The MIC was 800 µg/mL (≈ 2370 µM).

Question: With `CCCCCCCCCC(C(=O)O)C1C=CCC1` (centres undefined) as the compound, how does the “fold change (FC)” value (Mycobacterium leprae) read?
Answer: Its value is 150.

Question: Which results are given for `CCCCc1cnc2nc(N)nc(N)c2n1`?
Answer: Ratio [6]: 4100; MIC [7]: 917 µM (≈ 200 µg/mL); Ki [8]: 1 nM

Question: With `CCCCCCCCC(C(=O)O)C1CCCCC1` (centres undefined) as the compound, how does the “fold change (FC)” value (Mycobacterium leprae) read?
Answer: Its value is 110.

Question: For `CCCCCCC(CCC1CCCCC1)C(=O)O` (centres undefined), which “fold change (FC)” value (Mycobacterium leprae) is on record?
Answer: The value was 125.

Question: For `c1ccc(CCn2cnc3c(-c4ccco4)ncnc32)cc1`, which inhibition at 6.25 µg/mL [9] is on record?
Answer: Its inhibition at 6.25 µg/mL is 26%.

Question: What about the “inhibition (INH)” value [10] of the same compound?
Answer: The value was 53%.

Question: With `COc1cc(Cc2cnc3nc(N)nc(N)c3n2)cc(OC)c1OC` as the compound, how does the Ratio [6] read?
Answer: Its Ratio is 230.

Question: And the MIC [7]?
Answer: Its MIC is 347 µM (≈ 119 µg/mL).

Question: What about the Ki [8] of the same compound?
Answer: Its Ki is 5 nM.

Question: What does the source list for `Cc1cnc2nc(N)nc(N)c2n1`?
Answer: Ratio [6]: 0.8; MIC [7]: > 568 µM; Ki [8]: 5100 nM

Question: With `CCc1nc(N)nc(N)c1-c1ccc(Cl)cc1` [PYRIMETHAMINE] as the compound, how does the Ratio [6] read?
Answer: Its Ratio is 0.8.

Question: And the MIC [7]?
Answer: The MIC was 101 µM (≈ 25.1 µg/mL).

Question: What about the Ki [8] of the same compound?
Answer: Its Ki is 75 nM.

Question: With `Cn1cnc2c(-c3ccco3)ncnc21` as the compound, how does the inhibition at 6.25 µg/mL [9] read?
Answer: Its inhibition at 6.25 µg/mL is 0%.

Question: And the “inhibition (INH)” value [10]?
Answer: The value was under 10%.

Question: Which “fold change (FC)” value (Mycobacterium leprae) does the source give for `CCCCCCCCCCC(C(=O)O)C1CCCC1` (centres undefined) here?
Answer: Its value is 143.

Question: With `CC(C)c1ccc(/C=N/NC(=S)Nc2ccc(C(F)(F)F)cc2)cc1` as the compound, how does the MIC (Escherichia coli [1]) read?
Answer: Its MIC is 800 µg/mL (≈ 2190 µM).

Question: What about the MIC (Klebsiella pneumoniae) of the same compound?
Answer: The MIC was 400 µg/mL (≈ 1090 µM).

Question: And the MIC [2]?
Answer: Its MIC is 200 µg/mL (≈ 547 µM).

Question: What about the MIC (Staphylococcus aureus) of the same compound?
Answer: Its MIC is 400 µg/mL (≈ 1090 µM).

Question: What about the MIC (Enterococcus faecalis [3]) of the same compound?
Answer: Its MIC is 400 µg/mL (≈ 1090 µM).

Question: And the MIC (Pseudomonas aeruginosa)?
Answer: Its MIC is 400 µg/mL (≈ 1090 µM).

Question: What about the MIC (Enterococcus faecalis [4]) of the same compound?
Answer: The MIC was 400 µg/mL (≈ 1090 µM).

Question: What about the MIC (Escherichia coli [5]) of the same compound?
Answer: The MIC was 400 µg/mL (≈ 1090 µM).

Question: And the MIC (Listeria monocytogenes)?
Answer: Its MIC is 400 µg/mL (≈ 1090 µM).

Question: For `CCCCCCCCCCC(C(=O)O)C1CCCCC1` (centres undefined), which “fold change (FC)” value (Mycobacterium leprae) is on record?
Answer: The value was 180.

Reference: ChEMBL document CHEMBL4613212, “Insights of synthetic analogues of anti-leprosy agents” (Bioorg Med Chem, 2019)
